Our source for the RP-LC retention time values is the METLIN SMRT retention time set (Domingo-Almenara et al. 2019).

The nature of the data set: gradient 5% acetonitrile 3 min, to 50% in 2 min, to 85% in 15 min, held 3 min, 100 µL/min. The note with it: column: Zorbax Extend-C18 2.1 x 50 mm; eluents: water / acetonitrile, 0.1% formic acid. The essentials: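 Retention times of pure standards were taken from adduct peaks that were selected by computer and manually inspected. Over 3 months, mixtures of ~100 molecules were run by HPLC–quadrupole time-of-flight mass spectrometry in positive and negative ionization mode. The Zorbax Extend-C18 column (2.1 × 50 mm, 1.8 μm) ran at 100 μL/min in water and acetonitrile, each containing 0.1% formic acid, with 40 μL dead volume and 900 μL dwell volume.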
Consider `CCCCN(CCCC)CCCOC(=O)c1ccc(N)cc1`, for which the RP-LC retention time amounted to 738 s.

`COC(=O)c1cccc(COC(=O)C2=CN(Cc3ccccc3)S(=O)(=O)N=C2C)c1` had an RP-LC retention time of 1060 s.

Compound `Cc1cc(=O)n(CC#N)c(N2CCCCC2)n1` showed an RP-LC retention time of 655 s.

As for `Cc1ccc(C(=O)NCCc2sccc2C)cc1NC1=NC2CS(=O)(=O)CC2S1` (stereo not drawn), the RP-LC retention time is 685 s.

In turn, `COc1ccc(-c2cn3c(CCC(=O)Nc4ccc5c(c4)OCCO5)csc3n2)cc1` gave an RP-LC retention time of 678 s.

Compound `COc1ccc(-c2ncccc2CNS(=O)(=O)c2ccc(C#N)cc2)cc1` showed an RP-LC retention time of 673 s.

On to `Cc1ccc(CN2CCN(CC(=O)N3CCN(c4cccc(Cl)c4)CC3)C(=O)C2=O)cc1`, for which the RP-LC retention time was 866 s.

Compound `O=C(NCCNC(=O)c1ccc2c(c1)OCO2)c1ccc(NC(=O)C2CC2)cc1` came in with an RP-LC retention time of 650 s.

Take `CCOc1ccc(-c2nc(NC(=O)c3ccccc3[N+](=O)[O-])sc2C)cc1`: the RP-LC retention time is 1050 s.

`CCN1c2ccccc2C(=O)NC12CCN(C(=O)NCc1ccc(F)cc1)CC2` registered an RP-LC retention time of 769 s.

As to `Cc1cc(NC(=O)CCc2nc(-c3ccc(N4CCCC4)cc3)no2)ccc1Br`, the RP-LC retention time was 1230 s.

With `Cc1ccc(CNC(=O)C2=CCN(Cc3cccc(F)c3)CC2)o1`, the RP-LC retention time came to 626 s.

Compound `COc1ccc(NC(=O)N2CC(Oc3ccc(-c4nc(-c5ccccc5)no4)cc3)C2)cc1` returned an RP-LC retention time of 1090 s.

In the case of `CS(=O)(=O)N1CCCC1C(=O)Nc1nc(-c2cc(Cl)sc2Cl)cs1` (stereo not drawn), the RP-LC retention time was 993 s.

`CN1CCN(CCNC(=O)c2cc(-c3cccnc3)nc3ccc(Br)cc23)CC1` came in with an RP-LC retention time of 585 s.

Consider `CC(NC(=O)C1CCCN(c2cnc3nccnc3c2)C1)c1ccccn1` (stereo not drawn), for which the RP-LC retention time came to 565 s.

Compound `Cn1nc(C(=O)N2CCOCC2)c2c1CN(C(=O)Cc1ccsc1)C2` showed an RP-LC retention time of 640 s.

With `Cc1nc(-c2ccc(N3CCN(C(=O)c4cccc(C#N)c4)CC3)nc2)sc1C`, the RP-LC retention time is 825 s.

`CCOC(=O)N1CCN(c2nc(F)c(F)c(S(=O)(=O)CCN3C(=O)CCC3=O)c2F)CC1`: the RP-LC retention time is 836 s.

On to `COc1ccc(-c2coc3cc(OCc4ccc([N+](=O)[O-])cc4)ccc3c2=O)cc1OC`, for which the RP-LC retention time stood at 991 s.

For the compound `C=CCN(CC=C)c1nc(-c2ccccc2)nc2ccccc12`, the RP-LC retention time stood at 770 s.

Compound `O=C(NCCc1c[nH]c2ccccc12)c1cc(S(=O)(=O)N2CCSCC2)ccc1Cl` returned an RP-LC retention time of 925 s.

Turning to `CCOC(=O)CCNC(=O)N1CCC(N2CCN(Cc3ccc(C)cc3)C(=O)C2=O)CC1`, the RP-LC retention time was found to be 681 s.

`CCOc1ccc(CC(=O)N2C[C@@H]3C[C@H]2C[C@@H]3NC(=O)c2cccs2)cc1`: the RP-LC retention time was found to be 782 s.

As for `Cc1ccc(CN2CC(CO)C3(CCNCC3)C2)cc1C` (stereo not drawn), the RP-LC retention time worked out at 551 s.

As to `CSc1ccc(CNC(=O)c2cc(-c3ccncc3)cn2C)cc1`, the RP-LC retention time was 655 s.

For the compound `COCCCNC(=O)N1CCCCCC1c1cccc(C)c1` (stereo not drawn), the RP-LC retention time was found to be 910 s.

With `CCc1onc(C)c1C1CCCN1C(=O)c1ccc(C)cc1` (stereo not drawn), the RP-LC retention time came to 775 s.

Consider `COc1ccc(NC(=O)Cn2c(=O)c3cc(C4CC4)nn3c3ncccc32)c(OC)c1`, for which the RP-LC retention time is 772 s.

Take `O=C(NCCc1ccc(N2CCCC2)cc1)C(=O)Nc1ccc(OC(F)(F)F)cc1`: the RP-LC retention time worked out at 1090 s.

The compound `CCc1ccc(CNC(=O)C2CC(=O)N(c3ccc4c(c3)CCN4C(C)=O)C2)cc1` (stereo not drawn) showed an RP-LC retention time of 932 s.

In turn, `COC(=O)c1ccc(CN2C(=O)C(O)(c3ccccc3)c3ccccc32)cc1` (stereo not drawn) displayed an RP-LC retention time of 899 s.

`CCCS(=O)(=O)N1CCC(F)(F)C(COCc2cccnc2)C1` (stereo not drawn) returned an RP-LC retention time of 656 s.

On to `CN(C)c1ccc(C(=O)N2CCCC(COc3ccc(C(=O)NC4CC4)cc3)C2)cc1` (stereo not drawn), for which the RP-LC retention time amounted to 780 s.

The compound `CCN1c2ccccc2C(=O)NC12CCN(C(=O)NCc1ccc(C)cc1)CC2` registered an RP-LC retention time of 796 s.

As to `CCn1cc(-c2nc(CC(=O)Nc3ccc(OC)cc3)cs2)c2cccnc21`, the RP-LC retention time was 858 s.

For `CC(C)Cc1csc(-c2csc(S(=O)(=O)NCc3ccccc3Cl)c2)n1`, the RP-LC retention time was 1330 s.

Compound `C=Cc1ccc(CSc2nnc3c(S(=O)(=O)N4CCCC4)cccn23)cc1` came in with an RP-LC retention time of 884 s.

As for `CCC1CCCCN1Cc1ccc(CNC(=O)c2c(C)oc3c2C2=NCCN2C=N3)o1` (stereo not drawn), the RP-LC retention time was 710 s.

In the case of `CCOCC(=O)N1CCCN(C2=NS(=O)(=O)C(c3ccc(Cl)cc3)=C2C)CC1`, the RP-LC retention time turned out to be 761 s.

Regarding `O=C(c1ccc2c(c1)ncn2CCN1CCCC1)N1CCN(c2ccccc2F)CC1`, the RP-LC retention time came out at 596 s.

With `COc1ccccc1CCNC(=O)Cn1ccc2ccccc21`, the RP-LC retention time was 891 s.

In the case of `Cc1nc2c(sc3nc(-c4ccccc4)ccc32)c(=O)n1CC(=O)Nc1cc(F)cc(F)c1`, the RP-LC retention time turned out to be 1270 s.

`Cc1ccc(-c2nc(Cn3nnc(C(=O)NCc4ccc(C)o4)c3C)c(C)o2)cc1` returned an RP-LC retention time of 1010 s.

`c1ccc(-c2nc(N3CCCCCC3)c3ccccc3n2)cc1` gave an RP-LC retention time of 768 s.

Compound `Cn1c(=O)c(N2CCC(NC(=O)NCc3cccc(F)c3)CC2)nc2ccccc21` showed an RP-LC retention time of 816 s.

`COc1ccc(-c2noc(C3CCCN3C(=O)C3CCC3)n2)cc1` (stereo not drawn) returned an RP-LC retention time of 899 s.

Consider `COc1ccc(OCC(=O)N2CCCCC2CCN2CCOCC2)cc1` (stereo not drawn), for which the RP-LC retention time was found to be 601 s.

The compound `COc1cccc(C(O)CN2CCN(C3CCCCC3)CC2)c1` (stereo not drawn) gave an RP-LC retention time of 548 s.

`Cc1ccc2nc(NC(=O)CSc3nnc(Cc4c(C)[nH]c(=O)[nH]c4=O)o3)sc2c1`: the RP-LC retention time was 643 s.

As for `CO[C@@H]1C(O)[C@H](O[C@H]2CC[C@@]3(C=O)[C@H](CC[C@@H]4[C@@H]3CC[C@]3(C)[C@@H](C5=CC(=O)OC5)CC[C@]43O)C2)OC(C)[C@@H]1O` (stereo partly drawn), the RP-LC retention time was found to be 772 s.

Consider `Fc1ccccc1N1CCN(Cc2nc(-c3ccc(N4CCCC4)nc3)no2)CC1`, for which the RP-LC retention time was determined as 698 s.

Compound `CSc1ccc(-c2nc3ncccn3c2Nc2ccccc2C)cc1` displayed an RP-LC retention time of 839 s.

`CCOc1ccc(Nc2c(-c3ccc(SC)cc3)nc3cnccn23)cc1` showed an RP-LC retention time of 994 s.

The compound `CC(=O)c1ccc(NC(=O)NC2CCN(c3nc4ccccc4n(C)c3=O)CC2)cc1` returned an RP-LC retention time of 748 s.

`CCc1nc(-c2csc(S(=O)(=O)N3CCC(C(=O)Nc4cccc(C)n4)CC3)c2)no1` had an RP-LC retention time of 838 s.

Compound `CC1=C(c2ccc(C)cc2)S(=O)(=O)N=C1N1CCCN(C(=O)C2CC2)CC1` displayed an RP-LC retention time of 581 s.

The compound `Cc1nc(N2CCOCC2)c2c(C(=O)Nc3cc(Cl)ccc3C)c(C)oc2n1` yielded an RP-LC retention time of 869 s.
